From patent publication US12310975B2, “Modulators of BCL6 proteolysis and associated methods of use” (Arvinas Operations, Inc., priority 2019, dated 2025)
Read-outs that look alike come from different tables or passages of the source. Values belong to the compound of their own block, whether it stands above or below them.

Biological target: BCL6 (Homo sapiens (Human), UniProt P41182)
Test: Immunofluorescence high content imaging of BCL6 degradation in T47D cells
Format: cell-based
Procedure, shortened: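 T47D, 3 d compound exposure, 11-pt 3-fold series, top 0.1 or 1 μM final. Fix 4% PFA, Triton permeabilize, anti-BCL6 primary overnight 4 °C, Alexa-488 secondary. High-content imaging 10×, 4 fields/well, top-hat smoothing.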

Compound: CNC(=O)COc1cc2cc(Nc3nc(N4CCC(CN5CCC6(CCN(c7ccc8c(c7)CN(C7CCC(=O)NC7=O)C8=O)C6)C5)CC4)ncc3Cl)ccc2n(C(C)C)c1=O (stereo not shown) [compound 437, 2-{[6-({5-chloro-2-[4-({7-[2-(2,6-dioxopiperidin-3-yl)-1-oxo-2,3-dihydro-1H-isoindol-5-yl]-2,7-diazaspiro[4.4]nonan-2-yl}methyl)piperidin-1-yl]pyrimidin-4-yl}amino)-2-oxo-1-(propan-2-yl)-1,2-dihydroquinolin-3-yl]oxy}-N-methylacetamide]
Dmax (T47D cells): ≥ 70% | IC50 (T47D cells): < 10 nM

Compound: CNC(=O)COc1cc2cc(Nc3nc(N4CCC(CN5CCC(c6ccc(N7CCC(=O)NC7=O)c(OC)c6)CC5)CC4)ncc3Cl)ccc2n(C(C)C)c1=O [compound 415, 2-{[6-({5-chloro-2-[4-({4-[4-(2,4-dioxo-1,3-diazinan-1-yl)-3-methoxyphenyl]piperidin-1-yl}methyl)piperidin-1-yl]pyrimidin-4-yl}amino)-2-oxo-1-(propan-2-yl)-1,2-dihydroquinolin-3-yl]oxy}-N-methylacetamide]
IC50 (T47D cells): ≥ 100 nM

Compound: CNC(=O)COc1cc2cc(Nc3nc(N4CCN(CC5CCN(c6ccc(C(=O)NC7CCC(=O)NC7=O)c(OC(C)C)c6)CC5)CC4)ncc3Cl)ccc2n(C)c1=O (stereo not shown) [compound 358, 4-[4-({4-[5-chloro-4-({1-methyl-3-[(methylcarbamoyl)methoxy]-2-oxo-1,2-dihydroquinolin-6-yl}amino)pyrimidin-2-yl]piperazin-1-yl}methyl)piperidin-1-yl]-N-(2,6-dioxopiperidin-3-yl)-2-(propan-2-yloxy)benzamide]
IC50 (T47D cells): ≥ 100 nM

Results, then the compound that gave them:

IC50: 50 to 100 nM | Dmax (T47D): 50 to 70%
Compound: CNC(=O)COc1cc2cc(Nc3nc(N4CCC(CN5[C@H](C)CN(c6ccc(C(=O)NC7CCC(=O)NC7=O)c(F)c6)C[C@@H]5C)CC4)ncc3Cl)ccc2n(C)c1=O (stereo partly drawn) [compound 288, 4-[(3R,5S)-4-({1-[5-chloro-4-({1-methyl-3-[(methylcarbamoyl)methoxy]-2-oxo-1,2-dihydroquinolin-6-yl}amino)pyrimidin-2-yl]piperidin-4-yl}methyl)-3,5-dimethylpiperazin-1-yl]-N-(2,6-dioxopiperidin-3-yl)-2-fluorobenzamide]

Dmax (T47D cells): 50 to 70% | IC50 (T47D cells): < 10 nM
Compound: CNC(=O)COc1cc2cc(Nc3nc(N4CCN(CC5CCN(c6cccc(C(=O)NC7CCC(=O)NC7=O)c6OC)CC5)CC4)ncc3Cl)ccc2n(C)c1=O (stereo not shown) [compound 325, 3-[4-({4-[5-chloro-4-({1-methyl-3-[(methylcarbamoyl)methoxy]-2-oxo-1,2-dihydroquinolin-6-yl}amino)pyrimidin-2-yl]piperazin-1-yl}methyl)piperidin-1-yl]-N-(2,6-dioxopiperidin-3-yl)-2-methoxybenzamide]

DC50 (class symbols A-D, read-out: EC50 (nM)*): 50 to 100 nM
Compound: CNC(=O)COc1cc2cc(Nc3nc(N4CCC(OCCNc5cccc6c5C(=O)N(C5CCC(=O)NC5=O)C6=O)CC4)ncc3Cl)ccc2n(C)c1=O (stereo not shown) [compound 80, 2-((6-((5-chloro-2-(4-(2-((2-(2,6-dioxopiperidin-3-yl)-1,3-dioxoisoindolin-4-yl)amino)ethoxy)piperidin-1-yl)pyrimidin-4-yl)amino)-1-methyl-2-oxo-1,2-dihydroquinolin-3-yl)oxy)-N-methylacetamide]

IC50: ≥ 100 nM
Compound: CC(=O)COc1cc2cc(Nc3nc(N4CCC(OCCOC5CCN(c6ccc7c(c6)C(=O)N(C6CCC(=O)NC6=O)C7=O)CC5)C4)ncc3Cl)ccc2n(C)c1=O (stereo not shown) [compound 180, 5-(4-(2-((1-(5-chloro-4-((1-methyl-2-oxo-3-(2-oxopropoxy)-1,2-dihydroquinolin-6-yl)amino)pyrimidin-2-yl)pyrrolidin-3-yl)oxy)ethoxy)piperidin-1-yl)-2-(2,6-dioxopiperidin-3-yl)isoindoline-1,3-dione]
